Data from patent US20200222474A1, “COMPOSITIONS AND METHODS FOR INCREASING PHYTOCHEMICAL BIOAVAILABLITY AND BIOACTIVITY” (North Carolina State University, priority 2017, published 2020).

System: L. acidophilus NCFM
Assay: RNA-seq transcriptional analysis of L. acidophilus NCFM growing on plant glycosides
Assay type: cell-based, Lactobacillus acidophilus
[1] = LBA0329 Putative cell division protein, COG D
[2] = LBA0466 Hypothetical protein, COG C
[3] = LBA0500 MSM operon repressor, COG K
[4] = LBA0545 Hypothetical protein, COG L
[5] = LBA0547 Putative site-specific recombinase, COG L
[6] = LBA0573 Putative transcriptional regulator, COG K
[7] = LBA0607 Putative transcriptional regulator, COG K
[8] = LBA0672 Putative phosphate starvation inducible protein stress related, COG J
[9] = LBA0753 Multi-drug-type permease, COG GEPR
[10] = LBA0886 Sugar kinase-putative transcriptional regulator, COG KG
[11] = LBA0887 Hypothetical protein, COG C
[12] = LBA0897 Putative Cro-like protein, COG K
[13] = LBA0910 L-lactate dehydrogenase, COG C
[14] = LBA1021 Putative transcriptional regulator, COG K
[15] = LBA1220 Pyridine mercuric reductase, COG C
[16] = LBA1392 Mucus binding protein precursor Mub, COG J
[17] = LBA1411 Fumarate reductase flavoprotein subunit, COG CS
[18] = LBA1436 Glycerol uptake facilitator protein, COG G
[19] = LBA1457 Galactose-1-epimerase, COG G
[20] = LBA1458 Galactose-1-phosphate uridylyltransferase, COG G
[21] = LBA1462 Beta-galactosidase, COG G
[22] = LBA1463 Lactose permease, COG G
[23] = LBA1465 Transcription repressor of beta-galactosidasegene, COG K
[24] = LBA1467 Beta-galactosidase large subunit (lactase), COG G
[25] = LBA1468 Beta-galactosidase small subunit, COG G
[26] = LBA1481 D-ribose-binding protein precursor, COG G
[27] = LBA1482 Ribose ABC transporter, COG G
[28] = LBA1483 Ribose ABC transporter ATP binding protein, COG G
[29] = LBA1484 D-ribose pyranase, COG G
[30] = LBA1494 Lincomycin-resistance protein, COG GEPR
[31] = LBA1607 Phosphatidylserine decarboxylase precursor, COG I
[32] = LBA1632 NAD-dependent aldehyde dehydrogenase, COG C
[33] = LBA1653 Nicotinamide mononucleotide, COG H
[34] = LBA1684 Putative PTS system IIA component, COG G
[35] = LBA1689 Maltose-6′-phosphate Oucosidase, COG G
[36] = LBA1700 Transcriptional regulator-type, COG K
[37] = LBA1701 Melibiose operon regulatory protein, COG K
[38] = LBA1705 PTS system IIBC component, COG G
[39] = LBA1708 Transcriptional antiterminator, COG K
[40] = LBA1710 Thermostable pullulanase, COG G
[41] = LBA1812 Alpha-glucosidase II, COG G
[42] = LBA1870 Maltose phosphorylase, COG G
[43] = LBA1872 Oligo-1,6-glucosidase, COG G

For OC[C@H]1O[C@@H](O[C@H]2[C@H](O)[C@@H](O)[C@@H](O)O[C@@H]2CO)[C@H](O)[C@@H](O)[C@H]1O [Lac], which “Log2 differential normalized TPM ratio compared to glucose” value (“Log2 differential normalized TPM ratio” below) (LBA0016 Fructokinase, COG KG) is on record?
Its value is 1.2.

What about the “Transcripts per million (rpm)” value (LBA0016 Fructokinase, COG KG) of the same compound?
Its value is 211.4 rpm.

And the “Log2 differential normalized TPM ratio” value [1]?
The value was 0.4.

And the “Transcripts per million (rpm)” value [1]?
Its value is 22.1 rpm.

What about the “Log2 differential normalized TPM ratio” value [2] of the same compound?
Its value is 1.5.

What about the “Transcripts per million (rpm)” value [2] of the same compound?
Its value is 270 rpm.

What about the “Log2 differential normalized TPM ratio” value [3] of the same compound?
The value was 1.6.

What about the “Transcripts per million (rpm)” value [3] of the same compound?
Its value is 162 rpm.

And the “Log2 differential normalized TPM ratio” value [4]?
Its value is 2.

What about the “Transcripts per million (rpm)” value [4] of the same compound?
The value was 306 rpm.

What about the “Log2 differential normalized TPM ratio” value [5] of the same compound?
The value was 1.7.

And the “Transcripts per million (rpm)” value [5]?
Its value is 37.9 rpm.

What about the “Log2 differential normalized TPM ratio” value [6] of the same compound?
The value was 0.1.

And the “Transcripts per million (rpm)” value [6]?
The value was 98.5 rpm.

What about the “Log2 differential normalized TPM ratio” value [7] of the same compound?
Its value is 0.5.

What about the “Transcripts per million (rpm)” value [7] of the same compound?
Its value is 66.9 rpm.

What about the “Log2 differential normalized TPM ratio” value [8] of the same compound?
Its value is 0.8.

And the “Transcripts per million (rpm)” value [8]?
The value was 2957.4 rpm.

And the “Log2 differential normalized TPM ratio” value [9]?
Its value is −0.8.

What about the “Transcripts per million (rpm)” value [9] of the same compound?
The value was 29.5 rpm.

And the “Log2 differential normalized TPM ratio” value [10]?
The value was 0.2.

And the “Transcripts per million (rpm)” value [10]?
Its value is 7.7 rpm.

And the “Log2 differential normalized TPM ratio” value [11]?
Its value is 1.2.

And the “Transcripts per million (rpm)” value [11]?
The value was 133.7 rpm.

And the “Log2 differential normalized TPM ratio” value [12]?
The value was −2.4.

What about the “Transcripts per million (rpm)” value [12] of the same compound?
The value was 0.5 rpm.

What about the “Log2 differential normalized TPM ratio” value [13] of the same compound?
The value was 1.

What about the “Transcripts per million (rpm)” value [13] of the same compound?
Its value is 257.2 rpm.

And the “Log2 differential normalized TPM ratio” value [14]?
The value was 0.3.

And the “Transcripts per million (rpm)” value [14]?
Its value is 186.9 rpm.

And the “Log2 differential normalized TPM ratio” value [15]?
Its value is 1.

And the “Transcripts per million (rpm)” value [15]?
The value was 394.7 rpm.

And the “Log2 differential normalized TPM ratio” value [16]?
Its value is −0.2.

And the “Transcripts per million (rpm)” value [16]?
Its value is 88.9 rpm.

And the “Log2 differential normalized TPM ratio” value [17]?
The value was 1.1.

And the “Transcripts per million (rpm)” value [17]?
Its value is 4.7 rpm.

What about the “Log2 differential normalized TPM ratio” value [18] of the same compound?
Its value is 3.8.

What about the “Transcripts per million (rpm)” value [18] of the same compound?
Its value is 37 rpm.

And the “Log2 differential normalized TPM ratio” value [19]?
Its value is 5.6.

What about the “Transcripts per million (rpm)” value [19] of the same compound?
The value was 732.6 rpm.

And the “Log2 differential normalized TPM ratio” value [20]?
Its value is 5.7.

What about the “Transcripts per million (rpm)” value [20] of the same compound?
The value was 679.9 rpm.

And the “Log2 differential normalized TPM ratio” value (LBA1459 Galactokinase, COG G)?
Its value is 4.6.

And the “Transcripts per million (rpm)” value (LBA1459 Galactokinase, COG G)?
Its value is 610.1 rpm.

What about the “Log2 differential normalized TPM ratio” value [21] of the same compound?
The value was 6.

And the “Transcripts per million (rpm)” value [21]?
The value was 1123.2 rpm.

And the “Log2 differential normalized TPM ratio” value [22]?
Its value is 4.7.

And the “Transcripts per million (rpm)” value [22]?
Its value is 1427.3 rpm.

And the “Log2 differential normalized TPM ratio” value (LBA1464 Transposase, COG L)?
The value was 2.4.

And the “Transcripts per million (rpm)” value (LBA1464 Transposase, COG L)?
Its value is 956 rpm.

What about the “Log2 differential normalized TPM ratio” value [23] of the same compound?
Its value is 3.1.

And the “Transcripts per million (rpm)” value [23]?
The value was 485.8 rpm.

What about the “Log2 differential normalized TPM ratio” value [24] of the same compound?
Its value is 8.8.

What about the “Transcripts per million (rpm)” value [24] of the same compound?
The value was 2333 rpm.

And the “Log2 differential normalized TPM ratio” value [25]?
Its value is 6.4.

What about the “Transcripts per million (rpm)” value [25] of the same compound?
Its value is 1790.7 rpm.

And the “Log2 differential normalized TPM ratio” value [26]?
The value was 0.7.

What about the “Transcripts per million (rpm)” value [26] of the same compound?
Its value is 8.1 rpm.

And the “Log2 differential normalized TPM ratio” value [27]?
The value was 1.

What about the “Transcripts per million (rpm)” value [27] of the same compound?
Its value is 7.9 rpm.

What about the “Log2 differential normalized TPM ratio” value [28] of the same compound?
Its value is 1.

What about the “Transcripts per million (rpm)” value [28] of the same compound?
Its value is 6.4 rpm.

And the “Log2 differential normalized TPM ratio” value [29]?
Its value is 0.6.

And the “Transcripts per million (rpm)” value [29]?
Its value is 6.1 rpm.

And the “Log2 differential normalized TPM ratio” value (LBA1485 Ribokinase, COG G)?
Its value is 0.7.

And the “Transcripts per million (rpm)” value (LBA1485 Ribokinase, COG G)?
The value was 5.2 rpm.

And the “Log2 differential normalized TPM ratio” value [30]?
Its value is 0.1.

And the “Transcripts per million (rpm)” value [30]?
The value was 5.7 rpm.

And the “Log2 differential normalized TPM ratio” value [31]?
Its value is 1.

What about the “Transcripts per million (rpm)” value [31] of the same compound?
The value was 41.1 rpm.

And the “Log2 differential normalized TPM ratio” value [32]?
The value was 1.8.

What about the “Transcripts per million (rpm)” value [32] of the same compound?
Its value is 253.3 rpm.

What about the “Log2 differential normalized TPM ratio” value [33] of the same compound?
The value was 0.6.

What about the “Transcripts per million (rpm)” value [33] of the same compound?
The value was 369.4 rpm.

And the “Log2 differential normalized TPM ratio” value [34]?
The value was 1.9.

And the “Transcripts per million (rpm)” value [34]?
Its value is 48 rpm.

And the “Log2 differential normalized TPM ratio” value [35]?
Its value is 1.4.

What about the “Transcripts per million (rpm)” value [35] of the same compound?
The value was 9.7 rpm.

What about the “Log2 differential normalized TPM ratio” value [36] of the same compound?
The value was 0.4.

What about the “Transcripts per million (rpm)” value [36] of the same compound?
The value was 28.8 rpm.

What about the “Log2 differential normalized TPM ratio” value [37] of the same compound?
The value was 0.8.

And the “Transcripts per million (rpm)” value [37]?
Its value is 69.9 rpm.

What about the “Log2 differential normalized TPM ratio” value [38] of the same compound?
Its value is 0.8.

And the “Transcripts per million (rpm)” value [38]?
Its value is 6.1 rpm.

And the “Log2 differential normalized TPM ratio” value [39]?
Its value is 1.4.

And the “Transcripts per million (rpm)” value [39]?
Its value is 1.6 rpm.

What about the “Log2 differential normalized TPM ratio” value [40] of the same compound?
The value was 0.4.

What about the “Transcripts per million (rpm)” value [40] of the same compound?
Its value is 9.9 rpm.

What about the “Log2 differential normalized TPM ratio” value (LBA1723 Transposase, COG L) of the same compound?
The value was 0.2.

And the “Transcripts per million (rpm)” value (LBA1723 Transposase, COG L)?
The value was 62 rpm.

And the “Log2 differential normalized TPM ratio” value [41]?
Its value is 2.

And the “Transcripts per million (rpm)” value [41]?
Its value is 68.8 rpm.

And the “Log2 differential normalized TPM ratio” value [42]?
The value was −1.2.

And the “Transcripts per million (rpm)” value [42]?
The value was 46.3 rpm.

And the “Log2 differential normalized TPM ratio” value (LBA1871 Neopullulanase, COG G)?
The value was 0.7.

And the “Transcripts per million (rpm)” value (LBA1871 Neopullulanase, COG G)?
The value was 4.5 rpm.

What about the “Log2 differential normalized TPM ratio” value [43] of the same compound?
Its value is 0.4.

And the “Transcripts per million (rpm)” value [43]?
Its value is 4 rpm.

And the “Log2 differential normalized TPM ratio” value (LBA1873 Acetate kinase, COG C)?
The value was 1.4.

And the “Transcripts per million (rpm)” value (LBA1873 Acetate kinase, COG C)?
Its value is 9 rpm.
